# Test results taken from patent US6355799B1, “Substituted benzene compounds, process for their preparation, and herbicidal and defoliant compositions containing them” (ISK Americas Incorporated, priority 1997, dated 2002).
# Columns and labels:
# Assay type in all cases: in vivo
# [1] = system: redroot pigweed (Amaranthus retroflexus, AMARE); experiment: Pre-emerge test, greenhouse herbicide activity screening; conditions: rating scale 0-100, 14 days after application
# Summary of the method: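 Herbicidal damage is scored 0 (none) to 100 (complete plant death) two weeks after a simulated field spray. Rates span 15–1000 g ai/ha, delivered in acetone at 187 l/ha. For post-emergence treatments, plants have 2–3 leaves and the spray carries 0.25% v/v non-ionic surfactant.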
# [2] = system: upland rice (Oryza sp., var. Tebonnet, RICE); experiment: Pre-emerge test, crop safety; conditions: rating scale 0-100, 14 days after application
# Summary of the method: (§1)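 Fourteen days after spraying, crop and weed injury was graded visually from 0, no effect, to 100, every plant dead. Test substances were dissolved in acetone and applied at 15–1000 g ai/ha with a flat-fan nozzle. Application was either pre-emergence, one day after sowing, or post-emergence at the 2–3 leaf stage.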
# [3] = system: field corn (Zea mays L., var. Dekalb 535, CORN); experiment: Pre-emerge test, crop safety; conditions: rating scale 0-100, 14 days after application
# Summary of the method: as §1
# [4] = system: ivyleaf morningglory (Ipomoea hederacea, IPOHE); experiment: Pre-emerge test, greenhouse herbicide activity screening; conditions: rating scale 0-100, 14 days after application
# Summary of the method: (§2)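 Compounds in acetone were track-sprayed at 15–1000 g ai/ha: pre-emergence onto soil sown the previous day, then top-watered to incorporate and later bottom-watered; post-emergence onto 2–3 leaf plants with 0.25% v/v surfactant, bottom-watered only. Ratings on a 0–100 phytotoxicity scale were taken at day 14.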
# [5] = system: barnyardgrass (Echinochloa crus-galli, ECHCG); experiment: as above; conditions: rating scale 0-100, 14 days after application
# Summary of the method: as §2
# [6] = system: green foxtail (Setaria viridis, SETVI); experiment: as above; conditions: rating scale 0-100, 14 days after application
# Summary of the method: as §2
# [7] = system: large crabgrass (Digitaria sanguinalis, DIGSA); experiment: as above; conditions: rating scale 0-100, 14 days after application
# Summary of the method: as §2
# [8] = system: velvetleaf (Abutilon theophrasti, ABUTH); experiment: as above; conditions: rating scale 0-100, 14 days after application
# Summary of the method: as §2
# [9] = system: lambsquarters (Chenopodium album, CHEAL); experiment: as above; conditions: rating scale 0-100, 14 days after application
# Summary of the method: as §2
# [10] = system: johnsongrass (Sorghum halepense, SORHA); experiment: as above; conditions: rating scale 0-100, 14 days after application
# Summary of the method: as §2
# [11] = system: sicklepod (Cassia obtusifolia, CASOB); experiment: as above; conditions: rating scale 0-100, 14 days after application
# Summary of the method: as §2
# [12] = system: upland rice (Oryza sp., var. Tebonnet, RICE); experiment: Post-emerge test, crop safety; conditions: rating scale 0-100 (0 no damage, 100 complete death), 14 days after application
# Summary of the method: (§3)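 Rating: 0–100 visual injury, 14 DAA. Application: acetone, 187 l/ha, 15–1000 g ai/ha, flat-fan track sprayer with nozzle 40–45 cm above soil or canopy. Post-emerge runs used 0.25% v/v surfactant on 2–3 leaf plants.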
# [13] = system: field corn (Zea mays L., var. Dekalb 535, CORN); experiment: Post-emerge test, crop safety; conditions: rating scale 0-100 (0 no damage, 100 complete death), 14 days after application
# Summary of the method: as §3
# [14] = system: ivyleaf morningglory (Ipomoea hederacea, IPOHE); experiment: Post-emerge test, greenhouse herbicide activity screening; conditions: rating scale 0-100 (0 no damage, 100 complete death), 14 days after application
# Summary of the method: (§4)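 Compounds in acetone were track-sprayed at 187 l/ha, 15–1000 g ai/ha, onto sandy loam pots. Pre-emerge seeds were sown one day before spraying, with surface watering afterwards. Post-emerge plants were at the 2–3 leaf stage and sprayed with 0.25% v/v non-ionic surfactant. Injury was rated 0–100 at 14 days.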
# [15] = system: barnyardgrass (Echinochloa crus-galli, ECHCG); experiment: as above; conditions: rating scale 0-100 (0 no damage, 100 complete death), 14 days after application
# Summary of the method: as §4
# [16] = system: green foxtail (Setaria viridis, SETVI); experiment: as above; conditions: rating scale 0-100 (0 no damage, 100 complete death), 14 days after application
# Summary of the method: as §4
# [17] = system: large crabgrass (Digitaria sanguinalis, DIGSA); experiment: as above; conditions: rating scale 0-100 (0 no damage, 100 complete death), 14 days after application
# Summary of the method: as §4
# [18] = system: velvetleaf (Abutilon theophrasti, ABUTH); experiment: as above; conditions: rating scale 0-100 (0 no damage, 100 complete death), 14 days after application
# Summary of the method: as §4
# [19] = system: lambsquarters (Chenopodium album, CHEAL); experiment: as above; conditions: rating scale 0-100 (0 no damage, 100 complete death), 14 days after application
# Summary of the method: as §4
# [20] = system: redroot pigweed (Amaranthus retroflexus, AMARE); experiment: as above; conditions: rating scale 0-100 (0 no damage, 100 complete death), 14 days after application
# Summary of the method: as §4
# [21] = system: johnsongrass (Sorghum halepense, SORHA); experiment: as above; conditions: rating scale 0-100 (0 no damage, 100 complete death), 14 days after application
# Summary of the method: as §4
# [22] = system: common ragweed (Ambrosia artemisizfolia L., AMBEL); experiment: as above; conditions: rating scale 0-100 (0 no damage, 100 complete death), 14 days after application
# Summary of the method: as §4
# [23] = system: sicklepod (Cassia obtusifolia, CASOB); experiment: as above; conditions: rating scale 0-100 (0 no damage, 100 complete death), 14 days after application
# Summary of the method: as §4
structure (smiles),measurement,setting,value
COc1c(Cl)cc(F)c(-n2c(=O)cc(C(F)(F)F)n(C)c2=O)c1CC(C)(Cl)C(=O)OCC(F)(F)C(F)F (stereo not shown) [14-45],"Pre-emerge herbicidal activity, phytotoxicity rating AMARE",[1]; 63 g ai/ha,100
same,"Pre-emerge herbicidal activity, phytotoxicity rating AMARE",[1]; 250 g ai/ha,100
same,"Pre-emerge phytotoxicity rating, crop damage RICE",[2]; 63 g ai/ha,10
same,"Pre-emerge phytotoxicity rating, crop damage RICE",[2]; 250 g ai/ha,80
same,"Pre-emerge phytotoxicity rating, crop damage CORN",[3]; 63 g ai/ha,0
same,"Pre-emerge phytotoxicity rating, crop damage CORN",[3]; 250 g ai/ha,10
same,"Pre-emerge herbicidal activity, phytotoxicity rating IPOHE",[4]; 63 g ai/ha,0
same,"Pre-emerge herbicidal activity, phytotoxicity rating IPOHE",[4]; 250 g ai/ha,0
same,"Pre-emerge herbicidal activity, phytotoxicity rating ECHCG",[5]; 63 g ai/ha,0
same,"Pre-emerge herbicidal activity, phytotoxicity rating ECHCG",[5]; 250 g ai/ha,80
same,"Pre-emerge herbicidal activity, phytotoxicity rating SETVI",[6]; 63 g ai/ha,0
same,"Pre-emerge herbicidal activity, phytotoxicity rating SETVI",[6]; 250 g ai/ha,95
same,"Pre-emerge herbicidal activity, phytotoxicity rating DIGSA",[7]; 63 g ai/ha,30
same,"Pre-emerge herbicidal activity, phytotoxicity rating DIGSA",[7]; 250 g ai/ha,99
same,"Pre-emerge herbicidal activity, phytotoxicity rating ABUTH",[8]; 63 g ai/ha,100
same,"Pre-emerge herbicidal activity, phytotoxicity rating ABUTH",[8]; 250 g ai/ha,100
same,"Pre-emerge herbicidal activity, phytotoxicity rating CHEAL",[9]; 63 g ai/ha,95
same,"Pre-emerge herbicidal activity, phytotoxicity rating CHEAL",[9]; 250 g ai/ha,100
same,"Pre-emerge herbicidal activity, phytotoxicity rating SORHA",[10]; 63 g ai/ha,0
same,"Pre-emerge herbicidal activity, phytotoxicity rating SORHA",[10]; 250 g ai/ha,50
same,"Pre-emerge herbicidal activity, phytotoxicity rating CASOB",[11]; 63 g ai/ha,0
same,"Pre-emerge herbicidal activity, phytotoxicity rating CASOB",[11]; 250 g ai/ha,0
same,Post-emerge phytotoxicity rating RICE (crop damage),[12]; Rate 63 g ai/ha,70
same,Post-emerge phytotoxicity rating RICE (crop damage),[12]; Rate 250 g ai/ha,100
same,Post-emerge phytotoxicity rating CORN (crop damage),[13]; Rate 63 g ai/ha,70
same,Post-emerge phytotoxicity rating CORN (crop damage),[13]; Rate 250 g ai/ha,100
same,"Post-emerge Herbicidal Activity, phytotoxicity rating IPOHE",[14]; Rate 63 g ai/ha,100
same,"Post-emerge Herbicidal Activity, phytotoxicity rating IPOHE",[14]; Rate 250 g ai/ha,100
same,"Post-emerge Herbicidal Activity, phytotoxicity rating ECHCG",[15]; Rate 63 g ai/ha,100
same,"Post-emerge Herbicidal Activity, phytotoxicity rating ECHCG",[15]; Rate 250 g ai/ha,100
same,"Post-emerge Herbicidal Activity, phytotoxicity rating SETVI",[16]; Rate 63 g ai/ha,70
same,"Post-emerge Herbicidal Activity, phytotoxicity rating SETVI",[16]; Rate 250 g ai/ha,95
same,"Post-emerge Herbicidal Activity, phytotoxicity rating DIGSA",[17]; Rate 63 g ai/ha,90
same,"Post-emerge Herbicidal Activity, phytotoxicity rating DIGSA",[17]; Rate 250 g ai/ha,100
same,"Post-emerge Herbicidal Activity, phytotoxicity rating ABUTH",[18]; Rate 63 g ai/ha,100
same,"Post-emerge Herbicidal Activity, phytotoxicity rating ABUTH",[18]; Rate 250 g ai/ha,100
same,"Post-emerge Herbicidal Activity, phytotoxicity rating CHEAL",[19]; Rate 63 g ai/ha,100
same,"Post-emerge Herbicidal Activity, phytotoxicity rating CHEAL",[19]; Rate 250 g ai/ha,100
same,"Post-emerge Herbicidal Activity, phytotoxicity rating AMARE",[20]; Rate 63 g ai/ha,100
same,"Post-emerge Herbicidal Activity, phytotoxicity rating AMARE",[20]; Rate 250 g ai/ha,100
same,"Post-emerge Herbicidal Activity, phytotoxicity rating SORHA",[21]; Rate 63 g ai/ha,70
same,"Post-emerge Herbicidal Activity, phytotoxicity rating SORHA",[21]; Rate 250 g ai/ha,90
same,"Post-emerge Herbicidal Activity, phytotoxicity rating AMBEL",[22]; Rate 63 g ai/ha,100
same,"Post-emerge Herbicidal Activity, phytotoxicity rating AMBEL",[22]; Rate 250 g ai/ha,100
same,"Post-emerge Herbicidal Activity, phytotoxicity rating CASOB",[23]; Rate 63 g ai/ha,30
same,"Post-emerge Herbicidal Activity, phytotoxicity rating CASOB",[23]; Rate 250 g ai/ha,30
